pIC50: −log10 of the molar value. Counter-ions that a name gives are not always drawn.
How the values were obtained:
[1] = molecular target: IL-17A(FLAG-Tagged): IL-17RA(His-Tagged) (Homo sapiens, UniProt Q16552, K93Q); test: IL-17A(FLAG-Tagged): IL-17RA(His-Tagged) Binding Disruption Eu-HTRF Assay; details: IL-17A/IL-17RA binding disruption, simple average if tested more than once
Procedure, shortened: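 IC50 comes from a one-site competition fit of the HTRF 665/620 nm ratio. Compound dilutions (2-fold, 22 points) were held 1 h rt with FLAG-tagged IL-17A dimer, then His-tagged IL-17RA plus Eu-cryptate anti-FLAG and D2 anti-His antibodies were added for 2 h rt.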

[2] = system: IL-17A-induced G-CSF production in human normal keratinocyte (NHK); test: NHK Assay: IL-17A-induced G-CSF production in human normal keratinocytes; format: cell-based; details: 24 h, adult normal human keratinocytes, IL-17A 5 ng/mL, simple average if tested more than once
Procedure, shortened: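 Compound is first combined with recombinant human IL-17A for 1 h at rt, and the mix is added to adult normal human keratinocytes so that IL-17A is 5 ng/mL. After 24 h at 37° C in 5% FBS, G-CSF released into the medium is read by HTRF and IC50 derived.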

UniProt Q16552, sequence (Q16552 with tags, fused parts or gaps K93Q): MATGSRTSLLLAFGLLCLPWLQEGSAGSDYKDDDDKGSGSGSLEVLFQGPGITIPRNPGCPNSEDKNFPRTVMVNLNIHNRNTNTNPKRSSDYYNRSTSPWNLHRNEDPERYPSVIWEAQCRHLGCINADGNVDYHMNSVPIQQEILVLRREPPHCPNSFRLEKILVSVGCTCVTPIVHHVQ

| SMILES | pIC50 [1] | pIC50 ([2]; Homo sapiens, Keratinocyte) | pIC50 [2] |
| --- | --- | --- | --- |
| CC(C)n1ncnc1C(=O)N[C@H](c1cn2ncc([C@H](NC(=O)CCC(F)(F)F)C3CC3)cc2n1)C1CCC(F)(F)CC1 [Example 483, N—[(S)-[7-[(R)-Cyclopropyl-(4,4,4-trifluorobutanamido)methyl]imidazo[1,2-b]pyridazin-2-yl]-(4,4-difluorocyclohexyl)methyl]-2-isopropyl-1,2,4-triazole-3-carboxamide] | 7.12 | 6.42 | – |
| Cc1c(C(=O)N[C@H](c2cn3ncc([C@H](NC(=O)CCC(F)(F)F)C4CC4)cc3n2)C2CCC(F)(F)CC2)cnn1CC(F)F [Example 50, N—((S)-(7-((R)-Cyclopropyl(4,4,4-trifluorobutanamido)methyl)imidazo[1,2-b]pyridazin-2-yl)(4,4-difluorocyclohexyl)methyl)-1-(2,2-difluoroethyl)-5-methyl-1H-pyrazole-4-carboxamide] | 6.46 | 6.00 | – |
| Cc1nonc1C(=O)N[C@H](c1cn2ncc([C@H](NC(=O)CCC(C)(F)F)C3CC3)cc2n1)C1CCC(F)(F)CC1 [Example 259, N—((S)-(7-((R)-Cyclopropyl(4,4-difluoropentanamido)methyl)imidazo[1,2-b]pyridazin-2-yl)(4,4-difluorocyclohexyl)methyl)-4-methyl-1,2,5-oxadiazole-3-carboxamide] | 6.92 | 6.21 | – |
| O=C(CCC(F)(F)F)N[C@@H](c1cnn2cc([C@@H](NC(=O)[C@@H]3CC34CCC4)C3CCC(F)(F)CC3)nc2c1)C1CC1 (relative stereo) [Example 366, (R*)—N—((S)-(7-((R*)-Cyclopropyl(4,4,4-trifluorobutanamido)methyl)imidazo[1,2-b]pyridazin-2-yl)(4,4-difluorocyclohexyl)methyl)spiro[2.3]hexane-1-carboxamide] | 5.62 | < 4.70 | – |
| O=C(CCC(F)F)N[C@@H](c1cnn2cc([C@@H](NC(=O)c3conc3OCC(F)F)C3CCC(F)(F)CC3)nc2c1)C1CC1 [Example 286, N—((S)-(7-((R)-Cyclopropyl(4,4-difluorobutanamido)methyl)imidazo[1,2-b]pyridazin-2-yl)(4,4-difluorocyclohexyl)methyl)-3-(2,2-difluoroethoxy)isoxazole-4-carboxamide] | 6.51 | 5.12 | – |
| O=C(CCC(F)(F)F)N[C@@H](c1cnn2cc([C@@H](NC(=O)c3cnnn3C3CC3)C3CCC(F)(F)CC3)nc2c1)C1CC1 [Example 68, 1-Cyclopropyl-N—((S)-(7-((R)-cyclopropyl(4,4,4-trifluorobutanamido)methyl)imidazo[1,2-b]pyridazin-2-yl)(4,4-difluorocyclohexyl)methyl)-1H-1,2,3-triazole-5-carboxamide] | 6.82 | 6.60 | – |
| O=C(CCC(F)(F)F)NC(c1cnn2cc([C@@H](NC(=O)c3cnn(CC4CC4)n3)C3CCC(F)(F)CC3)nc2c1)C1CC1 (stereo in doubt) [Example 25, N—((S)-(7-((R*)-Cyclopropyl(4,4,4-trifluorobutanamido)methyl)imidazo[1,2-b]pyridazin-2-yl)(4,4-difluorocyclohexyl)methyl)-2-(cyclopropylmethyl)-2H-1,2,3-triazole-4-carboxamide] | 7.15 | 6.46 | – |
| CC(C)c1nonc1C(=O)N[C@H](c1cn2ncc([C@H](NC(=O)CCC(F)(F)F)C3CC3)cc2n1)C1CCC(F)(F)CC1 [Example 379, N—((S)-(7-((R)-Cyclopropyl(4,4,4-trifluorobutanamido)methyl)imidazo[1,2-b]pyridazin-2-yl)(4,4-difluorocyclohexyl)methyl)-4-isopropyl-1,2,5-oxadiazole-3-carboxamide] | 7.77 | 7.52 | – |
| CC(C)n1nccc1C(=O)N[C@H](c1cn2ncc(C(NC(=O)CC3CC(F)(F)C3)C3(C#N)CC3)cc2n1)C1CCC(F)(F)CC1 (single isomer, unassigned) [Example 426, N—((S)-(7-((S*)-(1-Cyanocyclopropyl)(2-(3,3-difluorocyclobutyl)acetamido)methyl)imidazo[1,2-b]pyridazin-2-yl)(4,4-difluorocyclohexyl)methyl)-1-isopropyl-1H-pyrazole-5-carboxamide] | 6.47 | – | 7.00 |
| O=C(N[C@H](c1cn2ncc([C@H](NC(=O)C(F)(F)CC3CC3)C3CC3)cc2n1)C1CCC(F)(F)CC1)c1nonc1C1CC1 [Example 411, 4-Cyclopropyl-N—((S)-(7-((R)-cyclopropyl(3-cyclopropyl-2,2-difluoropropanamido)methyl)imidazo[1,2-b]pyridazin-2-yl)(4,4-difluorocyclohexyl)methyl)-1,2,5-oxadiazole-3-carboxamide] | 7.11 | 7.31 | – |
| CC(C)n1nccc1C(=O)N[C@H](c1cn2ncc(C(NC(=O)CC3CC(F)(F)C3)C(F)F)cc2n1)C1CCC(F)(F)CC1 (single isomer, unassigned) [Example 519, N—((S)-(7-((S*)-1-(2-(3,3-Difluorocyclobutyl)acetamido)-2,2-difluoroethyl)imidazo[1,2-b]pyridazin-2-yl)(4,4-difluorocyclohexyl)methyl)-1-isopropyl-1H-pyrazole-5-carboxamide] | 6.72 | – | 7.28 |
| CCn1nncc1C(=O)N[C@H](c1cn2ncc([C@H](NC(=O)CCC(F)(F)F)C3CC3)cc2n1)C1CCC(F)(F)CC1 [Example 58, N—((S)-(7-((R)-Cyclopropyl(4,4,4-trifluorobutanamido)methyl)imidazo[1,2-b]pyridazin-2-yl)(4,4-difluorocyclohexyl)methyl)-1-ethyl-1H-1,2,3-triazole-5-carboxamide] | 7.09 | 6.57 | – |
| Cn1nccc1C(=O)N[C@H](c1cn2ncc(CNC(=O)[C@@H]3NCCC[C@H]3C(F)(F)F)cc2n1)C1CCCCC1 (relative stereo) [Example 3, (Trans-2R*,3R*)—N-((2-((S)-cyclohexyl(1-methyl-1H-pyrazole-5-carboxamido)methyl)imidazo[1,2-b]pyridazin-7-yl)methyl)-3-(trifluoromethyl)piperidine-2-carboxamide hydrochloride] | 7.01 | 6.52 | – |
| CCn1nccc1C(=O)N[C@H](c1cn2ncc([C@H](NC(=O)CCC(F)(F)F)C3CC3)cc2n1)C1CCC(F)(F)CC1 [Example 127, N—((S)-(7-((R)-Cyclopropyl(4,4,4-trifluorobutanamido)methyl)imidazo[1,2-b]pyridazin-2-yl)(4,4-difluorocyclohexyl)methyl)-1-ethyl-1H-pyrazole-5-carboxamide] | 7.40 | 7.00 | – |
| CC(C)n1nccc1C(=O)N[C@@H](COC(C)(C)C)c1cn2ncc([C@H](NC(=O)CC3CC(F)(F)C3)C3CC3)cc2n1 [Example 318, N—((R)-2-(tert-Butoxy)-1-(7-((R)-cyclopropyl(2-(3,3-difluorocyclobutyl)acetamido)methyl)imidazo[1,2-b]pyridazin-2-yl)ethyl)-1-isopropyl-1H-pyrazole-5-carboxamide] | 6.57 | 6.32 | – |
| CC(CC(=O)N[C@@H](c1cnn2cc([C@@H](NC(=O)c3conc3C3CC3)C3CCC(F)(F)CC3)nc2c1)C1CC1)C(F)(F)F (single isomer, unassigned) [Example 128, 3-Cyclopropyl-N—((S)-(7-((R)-cyclopropyl((R*)-4,4,4-trifluoro-3-methylbutanamido)methyl)imidazo[1,2-b]pyridazin-2-yl)(4,4-difluorocyclohexyl)methyl)isoxazole-4-carboxamide] | 7.49 | – | 7.02 |
